We go through 21 compounds from patent US20170037028A1 (BAYER PHARMA AKTIENGESELLSCHAFT, priority 2013, published 2017).

For the experiment, the target named is T1, GLUT1 (Homo sapiens, UniProt P11166).
T1 sequence (P11166 1-492): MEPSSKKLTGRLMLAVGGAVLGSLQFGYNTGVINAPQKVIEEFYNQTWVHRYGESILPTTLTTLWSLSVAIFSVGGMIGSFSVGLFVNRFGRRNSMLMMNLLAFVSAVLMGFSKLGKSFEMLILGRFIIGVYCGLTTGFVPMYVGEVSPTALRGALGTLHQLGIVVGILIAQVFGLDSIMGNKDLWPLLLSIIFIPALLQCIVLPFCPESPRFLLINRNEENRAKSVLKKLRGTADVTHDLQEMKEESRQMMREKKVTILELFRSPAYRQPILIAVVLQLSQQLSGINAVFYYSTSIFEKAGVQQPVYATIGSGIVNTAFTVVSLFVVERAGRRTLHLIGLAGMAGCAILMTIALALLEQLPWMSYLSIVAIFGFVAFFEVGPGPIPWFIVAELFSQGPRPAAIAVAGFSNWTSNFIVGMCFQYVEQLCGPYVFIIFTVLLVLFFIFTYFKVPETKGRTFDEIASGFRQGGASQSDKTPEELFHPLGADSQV
Put plainly: Indirect measurement of GLUT1 activity by quantification of intracellular ATP levels (glucose induced ATP increase). In kind it is cell-based. More on the design: endogenous in cells; host or cells: DLD1 or CHO-K1. The settings on record: read-out: IC50 regarding glucose induced ATP increase (GLUT1 inhibition). A digest of the protocol:
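DLD1 or CHO-K1 cells were starved overnight in glucose-free medium with 1% FCS, then combined with an oxidative phosphorylation inhibitor. GLUT1 activity was read as glucose-induced ATP increase, GLUT2 as fructose-induced. Intracellular ATP was quantified by CellTiter-Glo luminescence.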
With `Cc1ccc2nc(C)cc(C(=O)Nc3c(C(F)(F)F)nn(Cc4ccc(F)cc4F)c3C)c2c1` [Example 204, N-[1-(2,4-difluorobenzyl)-5-methyl-3-(trifluoromethyl)-1H-pyrazol-4-yl]-2,6-dimethylquinoline-4-carboxamide], the concentration for half-maximal inhibition (IC50) came to 613 nM.
In the case of `Cc1nn(Cc2ccc(F)cc2)c(C)c1NC(=O)c1cc(C(F)(F)F)nc2cc(F)c(Cl)cc12` [Example 121, 6-chloro-7-fluoro-N-[1-(4-fluorobenzyl)-3,5-dimethyl-1H-pyrazol-4-yl]-2-(trifluoromethyl)quinoline-4-carboxamide], the IC50 stood at 1.7 nM.
For the compound `Cc1nn(Cc2ccc(C(F)(F)F)cc2)c(C)c1NC(=O)c1cc(C(F)(F)F)nc2ccc(Br)cc12` [Example 1302], the half-maximal inhibitory concentration (IC50) amounted to 11100 nM.
On to `Cc1nn(Cc2ccc(F)cc2F)c(C)c1NC(=O)c1cc(C(N)=O)nc2cc(F)c(Cl)cc12` [Example 1489], for which the 50% inhibitory concentration (IC50) came out at 6 nM.
With `Cc1c(NC(=O)c2cc(C(N)=O)nc3cccc(O)c23)c(C(F)(F)F)nn1Cc1ccc(C#N)cc1` [Example 1565], the IC50 worked out at 21 nM.
For the compound `Cc1nn(Cc2ccc(F)cc2)c(C(=O)N(C)C)c1NC(=O)c1cc(C(N)=O)nc2ccccc12` [Example 1250], the IC50 was 1670 nM.
As for `Cc1nn(Cc2cccnc2C#N)c(C)c1NC(=O)c1cc(C(F)(F)F)nc2ccc(Br)cc12` [Example 1118], the IC50 is 63.5 nM.
As to `Cc1c(NC(=O)c2cc(C(N)=O)nc3ccccc23)c(C(F)(F)F)nn1Cc1ccc(S(C)(=O)=O)cc1` [Example 1432], the IC50 came to 27.4 nM.
As to `Cc1c(NC(=O)c2cc(C(F)(F)F)nc3ccc(Br)cc23)c(C(F)(F)F)nn1C(C)c1ccccc1` (racemic) [Example 1398], the IC50 was determined as 38.9 nM.
With `Cc1nn(Cc2ccc(C(=O)NCC3CC3)cc2)c(C)c1NC(=O)c1cc(C(F)(F)F)nc2ccc(Br)cc12` [Example 1079], the IC50 turned out to be 24.4 nM.
For `Cc1nn(Cc2ccc(C#N)cc2)c(C)c1NC(=O)c1cc(S(=O)(=O)N(C)C)nc2ccccc12` [Example 1577] the value was 9.7 nM; for `Cc1nn(Cc2ccc(F)c(F)c2)c(C)c1NC(=O)c1cc(C2CC2)nc2ccc(Br)cc12` [Example 123, 6-bromo-2-cyclopropyl-N-[1-(3,4-difluorobenzyl)-3,5-dimethyl-1H-pyrazol-4-yl]quinoline-4-carboxamide], 2 nM; for `Cc1nn(C(C)c2ccc(F)cc2)c(C)c1NC(=O)c1cc(C(N)=O)nc2ccccc12` (racemic) [Example 1364], 125 nM.
For `Cc1cccc(Cn2nc(C)c(NC(=O)c3cc(C(F)(F)F)nc4ccc(Br)cc34)c2C)c1` [Example 52, 6-bromo-N-[3,5-dimethyl-1-(3-methylbenzyl)-1H-pyrazol-4-yl]-2-(trifluoromethyl)quinoline-4-carboxamide] the value was 52.1 nM; for `Cc1nn(CCOc2ccc(C#N)cc2)c(C)c1NC(=O)c1cc(C(N)=O)nc2cc(F)c(Cl)cc12` [Example 294, 6-chloro-N^4-{1-[2-(4-cyanophenoxy)ethyl]-3,5-dimethyl-1H-pyrazol-4-yl}-7-fluoroquinoline-2,4-dicarboxamide], 6.6 nM; for `Cc1ccc2nc(C)cc(C(=O)Nc3c(C)nn(Cc4ccccc4C(F)(F)F)c3C)c2c1` [Example 1298], 11100 nM.
With `Cc1nn(Cc2ccc(OC(F)(F)F)cc2)c(C)c1NC(=O)c1cc(C(N)=O)nc2cc(F)c(Cl)cc12` [Example 1463], the IC50 is 4.1 nM.
`Cc1ccccc1Cn1nc(C(F)(F)F)c(NC(=O)c2cc(C(N)=O)nc3cccc(F)c23)c1C` [Example 1496]: the IC50 was determined as 6.2 nM.
Take `CCOC(=O)c1cc(Cn2nc(C(F)(F)F)c(NC(=O)c3cc(C(N)=O)nc4cc(F)ccc34)c2C)on1` [Example 1677]: the IC50 came out at 353 nM.
The figure for `Cc1nn(CCc2cccc(F)c2)c(C)c1NC(=O)c1cc(C(F)(F)F)nc2ccc(Br)cc12` [Example 1282] is 6020 nM.
Consider `Cc1ccc2nc(C)cc(C(=O)Nc3c(C)nn(CC4CCOCC4)c3C)c2c1` [Example 1176], for which the 50% inhibitory concentration (IC50) came out at 208 nM.

The term IC50 denotes the point on the concentration scale where inhibition reaches its midpoint.
